Values quoted from earlier work as cited in patent publication US6676956B1, “Oil-in-water emulsion for protecting human organs against peroxidation” (Fresenius Kabi Austria GmbH, priority 1998, dated 2004).
Each block holds one compound with its values, some of them ahead of it.

Columns and labels:
[1] = per 1 g of the form
skeletal muscles = conditions: 500 mg given directly before reperfusion

Compound: Cc1c(C)c2c(c(C)c1O)CCC(C)(CCCC(C)CCCC(C)CCCC(C)C)O2 (single isomer, unassigned) [SRR-stereoisomer, 2,5,7, 8 tetramethyl-2-(4′,8′,12′-trimethyltridecyl)chroman-6-ol]
effectiveness of 1 g corresponds to that of RRR-α-tocopherol [1]: 0.31 g

vitamin E concentration in the plasma (lipidperoxidation; 0.5 mg/day intravenously for 3 days vs 1.0 mg/day orally): significantly higher
Compound: vitamin E
concentration of TBARS in the plasma (lipidperoxidation; 0.5 mg/day intravenously for 3 days vs control animals): significantly lower

Compound: CC(=O)Oc1c(C)c(C)c2c(c1C)CCC(C)(CCCC(C)CCCC(C)CCCC(C)C)O2 (racemic) [all-rac-tocopherolacetate]
increase in lipid peroxides in the serum (TBARS) (skeletal muscles): prevented
increase in serum creatine-phosphokinase during the reperfusion phase (skeletal muscles): suppressed
ischaemia-reperfusion damage (skeletal muscles): reduced

α-tocopherol level in the cell-associated aortic endothelium (lipidperoxidation; 0.5 mg/day via central vein catheter for 3 days): significant increase
Compound: Cc1c(C)c2c(c(C)c1O)CCC(C)(CCCC(C)CCCC(C)CCCC(C)C)O2 (racemic) [all-rac-α-tocopherol, 2,5,7, 8 tetramethyl-2-(4′,8′,12′-trimethyltridecyl)chroman-6-ol]
effectiveness of 1 g corresponds to that of RRR-α-tocopherol [1]: 0.74 g
